Measured values: ChEMBL document CHEMBL5649167, “The SUV4-20 inhibitor A-196 verifies a role for epigenetics in genomic integrity” (Nat Chem Biol, 2017)
One block for each compound: values may come before it. Calls of active or inactive are those of the source. The rule behind the calls is not given here.

Experiments:
[1] = biological target: Histone-lysine N-methyltransferase KMT5B (Homo sapiens) (UniProt Q4FZB7); assay: Inhibition of recombinant human 6His-(Tev)-G-SUV420H1 (69 to 335 residues) using Biotin-tagged H4K20me1 and [3H-SAM] as substrate incubated for 2 hrs by scintillation proximity assay
[2] = biological target: Histone-lysine N-methyltransferase KMT5C (Homo sapiens) (UniProt Q86Y97); assay: Inhibition of human SUV420H2 using Biotin-tagged H4K20me1 and [3H-SAM] as substrate incubated for 2 hrs by scintillation proximity assay
[3] = test system: U2OS; assay: Inhibition of H4K20me2 in human U2OS cells assessed as change in methylation level at 10 uM incubated for 48 hrs by Western blotting analysis; assay type: functional, cell-based
[4] = biological target: Neurotensin receptor type 1 (Homo sapiens) (UniProt P30989); assay: Inhibition of human NTS1 at 10 uM relative to control
[5] = biological target: Sigma non-opioid intracellular receptor 1 (Homo sapiens) (UniProt Q99720); assay: Inhibition of human Sigma non-opioid intracellular receptor 1 at 10 uM relative to control; assay type: cell-based
[6] = biological target: 5-hydroxytryptamine receptor 1E (Homo sapiens) (UniProt P28566); assay: Inhibition of human 5-ht1e in stable HEK cells at 10 uM relative to control; assay type: cell-based
[7] = biological target: Histone-lysine N-methyltransferase KMT5B (Homo sapiens) (UniProt Q4FZB7); assay: Inhibition of recombinant human 6His-(Tev)-G-SUV420H1 (69 to 335 residues) using Biotin-tagged H4K20me1 and [3H-SAM] as substrate at 10 uM incubated for 2 hrs by scintillation proximity assay
[8] = biological target: PRMT5/MEP50 complex (Homo sapiens) (UniProt O14744+Q9BQA1); assay: Inhibition of PRMT5/MEP50 complex (unknown origin) using Biotin-tagged H4K20me1 and [3H-SAM] as substrate at 1 to 10 uM incubated for 2 hrs by scintillation proximity assay; assay type: protein-complex assay; conditions: dose 1-10 µM
[9] = biological target: Histone-lysine N-methyltransferase SUV39H1 (Homo sapiens) (UniProt O43463); assay: Inhibition of SUV39H1 (unknown origin) using Biotin-tagged H4K20me1 and [3H-SAM] as substrate at 1 to 10 uM incubated for 2 hrs by scintillation proximity assay; conditions: dose 1-10 µM
[10] = biological target: Histone-lysine N-methyltransferase PRDM9 (Homo sapiens) (UniProt Q9NQV7); assay: Inhibition of PRDM9 (unknown origin) using Biotin-tagged H4K20me1 and [3H-SAM] as substrate at 1 to 10 uM incubated for 2 hrs by scintillation proximity assay; conditions: dose 1-10 µM
[11] = biological target: Histone-lysine N-methyltransferase NSD2 (Homo sapiens) (UniProt O96028); assay: Inhibition of NSD2 (unknown origin) at 1 to 10 uM incubated for 1 hrs by scintillation proximity assay; conditions: dose 1-10 µM
[12] = biological target: Histone-lysine N-methyltransferase NSD3 (Homo sapiens) (UniProt Q9BZ95); assay: Inhibition of NSD3 (unknown origin) at 1 to 10 uM incubated for 1 hrs by scintillation proximity assay; conditions: dose 1-10 µM
[13] = species: Homo sapiens; assay: Inhibition of DNMT3B/3L (unknown origin) at 1 to 10 uM incubated for 1 hrs by scintillation proximity assay; conditions: dose 1-10 µM
[14] = test system: U2OS; assay: Cytotoxicity against human U2OS cells assessed as cell viability at 1.5 to 100 uM incubated after 72 hrs; assay type: functional, cell-based; conditions: dose 1.5-100 µM
[15] = test system: LNCaP; assay: Cytotoxicity against human LNCaP cells assessed as cell viability at 1.5 to 100 uM incubated after 72 hrs; assay type: functional, cell-based; conditions: dose 1.5-100 µM
[16] = test system: LNCaP; assay: Cytotoxicity against human LNCaP cells assessed as cell viability upto 12.5 uM incubated for 48 hrs; assay type: functional, cell-based
[17] = test system: HL-60; assay: Cytotoxicity against human HL-60 cells assessed as cell viability upto 12.5 uM incubated for 48 hrs; assay type: functional, cell-based
[18] = test system: U2OS; assay: Antiproliferative activity against human U2OS cells assessed as cell population doubling at 1 uM incubated for 80 days; assay type: functional, cell-based; conditions: time 80.0 day
[19] = test system: HeLa; assay: Antiproliferative activity against human HeLa cells assessed as inhibition in H4K20me3 expression level for 21 doublings by Western blot analysis; assay type: functional, cell-based
[20] = test system: U2OS; assay: Induction of DNA repair in human U2OS cells assessed as inhibition in 53BP1 foci formation at 1 uM measured after 24 hrs in the presence of 10 Gy of ionizing radiation by immunofluorescence analysis; assay type: functional, cell-based
[21] = test system: U2OS; assay: Induction of DNA repair in human U2OS cells expressing I-SceI reporter assessed as decrease in H4K20me3 level by Western blot analysis; assay type: functional, cell-based
[22] = test system: U2OS; assay: Induction of DNA repair in human U2OS cells expressing I-SceI reporter assessed as change in HDR-mediated repair at 1 uM by flow cytometry analysis; assay type: functional, cell-based
[23] = biological target: RAF proto-oncogene serine/threonine-protein kinase (Homo sapiens) (UniProt P04049); assay: Inhibition of human RAF-1 at 10 uM relative to control
[24] = biological target: Insulin receptor (Homo sapiens) (UniProt P06213); assay: Inhibition of human IRK at 10 uM relative to control
[25] = biological target: MAP kinase-interacting serine/threonine-protein kinase 2 (Homo sapiens) (UniProt Q9HBH9); assay: Inhibition of human MNK2 at 10 uM relative to control
[26] = biological target: Tyrosine-protein kinase ABL1 (Homo sapiens) (UniProt P00519); assay: Inhibition of human Abl at 10 uM relative to control
[27] = biological target: High affinity nerve growth factor receptor (Homo sapiens) (UniProt P04629); assay: Inhibition of human TRKA at 10 uM relative to control
[28] = biological target: Cyclin-dependent kinase 2 (Homo sapiens) (UniProt P24941); assay: Inhibition of human CDK2 at 10 uM relative to control
[29] = biological target: Serine/threonine-protein kinase PAK 2 (Homo sapiens) (UniProt Q13177); assay: Inhibition of human PAK2 at 10 uM relative to control
[30] = biological target: Serine/threonine-protein kinase PAK 4 (Homo sapiens) (UniProt O96013); assay: Inhibition of human PAK4 at 10 uM relative to control
[31] = biological target: 5-hydroxytryptamine receptor 1B (Homo sapiens) (UniProt P28222); assay: Inhibition of human 5-hydroxytryptamine receptor 1B at 10 uM relative to control
[32] = species: Rattus norvegicus; assay: Inhibition of Rat alpha 2-Adrenoceptor at 10 uM relative to control
[33] = biological target: Sodium-dependent serotonin transporter (Homo sapiens) (UniProt P31645); assay: Inhibition of human SERT expressed in stable HEK cells at 10 uM relative to control; assay type: cell-based
[34] = biological target: 3-phosphoinositide-dependent protein kinase 1 (Homo sapiens) (UniProt O15530); assay: Inhibition of human PDK1 at 10 uM relative to control

Chain of Histone-lysine N-methyltransferase KMT5B (Homo sapiens) (Q4FZB7 whole entry, looked up, the tested form may be a part): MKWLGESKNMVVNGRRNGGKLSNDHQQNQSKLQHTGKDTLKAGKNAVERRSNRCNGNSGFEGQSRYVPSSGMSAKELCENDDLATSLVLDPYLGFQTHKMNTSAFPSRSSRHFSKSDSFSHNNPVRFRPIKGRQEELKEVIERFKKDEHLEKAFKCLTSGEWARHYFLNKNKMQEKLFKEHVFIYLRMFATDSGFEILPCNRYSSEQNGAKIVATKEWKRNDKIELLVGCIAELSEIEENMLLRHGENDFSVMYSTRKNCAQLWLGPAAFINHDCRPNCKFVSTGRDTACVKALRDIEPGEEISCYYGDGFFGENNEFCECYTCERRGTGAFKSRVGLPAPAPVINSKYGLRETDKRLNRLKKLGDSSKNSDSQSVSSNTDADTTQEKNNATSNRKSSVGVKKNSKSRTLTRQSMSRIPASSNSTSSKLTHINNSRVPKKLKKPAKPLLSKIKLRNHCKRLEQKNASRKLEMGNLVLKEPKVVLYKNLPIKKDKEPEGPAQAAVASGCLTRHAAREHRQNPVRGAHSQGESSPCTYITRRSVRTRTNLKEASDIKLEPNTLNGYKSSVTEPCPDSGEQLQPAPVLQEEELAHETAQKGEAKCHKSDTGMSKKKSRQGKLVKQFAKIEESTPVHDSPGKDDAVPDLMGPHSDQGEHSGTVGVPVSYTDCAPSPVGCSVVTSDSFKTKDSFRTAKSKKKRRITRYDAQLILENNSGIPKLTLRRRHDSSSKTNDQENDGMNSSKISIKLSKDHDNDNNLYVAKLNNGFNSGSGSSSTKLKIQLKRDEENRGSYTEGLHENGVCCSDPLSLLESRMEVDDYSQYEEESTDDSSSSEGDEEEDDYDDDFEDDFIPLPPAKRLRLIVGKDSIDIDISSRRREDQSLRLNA
Chain of RAF proto-oncogene serine/threonine-protein kinase (Homo sapiens) (P04049 whole entry): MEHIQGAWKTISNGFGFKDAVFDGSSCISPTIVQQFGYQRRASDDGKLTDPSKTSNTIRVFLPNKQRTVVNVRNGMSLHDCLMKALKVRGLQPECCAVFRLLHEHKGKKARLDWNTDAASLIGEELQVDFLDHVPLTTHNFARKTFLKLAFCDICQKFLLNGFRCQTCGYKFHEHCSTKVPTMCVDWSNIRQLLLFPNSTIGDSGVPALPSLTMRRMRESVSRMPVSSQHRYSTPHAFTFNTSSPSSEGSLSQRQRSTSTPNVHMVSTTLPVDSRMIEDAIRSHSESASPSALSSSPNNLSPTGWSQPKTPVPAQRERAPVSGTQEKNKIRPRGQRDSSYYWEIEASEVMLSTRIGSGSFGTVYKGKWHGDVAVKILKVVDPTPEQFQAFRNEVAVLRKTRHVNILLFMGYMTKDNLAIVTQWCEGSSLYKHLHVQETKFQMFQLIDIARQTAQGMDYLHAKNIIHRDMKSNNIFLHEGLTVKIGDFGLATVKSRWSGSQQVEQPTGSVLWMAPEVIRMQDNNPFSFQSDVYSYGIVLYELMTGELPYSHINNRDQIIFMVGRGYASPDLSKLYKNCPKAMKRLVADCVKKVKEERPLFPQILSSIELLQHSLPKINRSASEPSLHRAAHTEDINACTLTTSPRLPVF
Chain of High affinity nerve growth factor receptor (Homo sapiens) (P04629 33-796 limits assumed): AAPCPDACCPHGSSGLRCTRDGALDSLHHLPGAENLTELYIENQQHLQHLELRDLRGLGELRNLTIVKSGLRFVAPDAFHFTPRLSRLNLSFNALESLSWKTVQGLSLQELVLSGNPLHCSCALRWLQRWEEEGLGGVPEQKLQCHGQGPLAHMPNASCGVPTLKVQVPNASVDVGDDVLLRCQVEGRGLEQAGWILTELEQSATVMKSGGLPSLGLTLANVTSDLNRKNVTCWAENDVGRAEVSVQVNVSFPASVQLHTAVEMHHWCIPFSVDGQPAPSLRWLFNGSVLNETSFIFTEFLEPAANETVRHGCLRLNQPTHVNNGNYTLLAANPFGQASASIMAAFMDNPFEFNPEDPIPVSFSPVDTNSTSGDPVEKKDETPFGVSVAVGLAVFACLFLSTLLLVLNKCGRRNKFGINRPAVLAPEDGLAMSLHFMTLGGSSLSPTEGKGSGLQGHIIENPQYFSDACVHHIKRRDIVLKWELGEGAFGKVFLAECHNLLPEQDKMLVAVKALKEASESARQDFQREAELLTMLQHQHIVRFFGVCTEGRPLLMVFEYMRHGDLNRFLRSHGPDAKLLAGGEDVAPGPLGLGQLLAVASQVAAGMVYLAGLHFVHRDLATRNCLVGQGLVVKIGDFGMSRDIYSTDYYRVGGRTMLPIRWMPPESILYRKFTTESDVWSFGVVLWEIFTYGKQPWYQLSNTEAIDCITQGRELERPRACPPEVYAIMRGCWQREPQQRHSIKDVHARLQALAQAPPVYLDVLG
Chain of Histone-lysine N-methyltransferase NSD2 (Homo sapiens) (O96028 whole entry): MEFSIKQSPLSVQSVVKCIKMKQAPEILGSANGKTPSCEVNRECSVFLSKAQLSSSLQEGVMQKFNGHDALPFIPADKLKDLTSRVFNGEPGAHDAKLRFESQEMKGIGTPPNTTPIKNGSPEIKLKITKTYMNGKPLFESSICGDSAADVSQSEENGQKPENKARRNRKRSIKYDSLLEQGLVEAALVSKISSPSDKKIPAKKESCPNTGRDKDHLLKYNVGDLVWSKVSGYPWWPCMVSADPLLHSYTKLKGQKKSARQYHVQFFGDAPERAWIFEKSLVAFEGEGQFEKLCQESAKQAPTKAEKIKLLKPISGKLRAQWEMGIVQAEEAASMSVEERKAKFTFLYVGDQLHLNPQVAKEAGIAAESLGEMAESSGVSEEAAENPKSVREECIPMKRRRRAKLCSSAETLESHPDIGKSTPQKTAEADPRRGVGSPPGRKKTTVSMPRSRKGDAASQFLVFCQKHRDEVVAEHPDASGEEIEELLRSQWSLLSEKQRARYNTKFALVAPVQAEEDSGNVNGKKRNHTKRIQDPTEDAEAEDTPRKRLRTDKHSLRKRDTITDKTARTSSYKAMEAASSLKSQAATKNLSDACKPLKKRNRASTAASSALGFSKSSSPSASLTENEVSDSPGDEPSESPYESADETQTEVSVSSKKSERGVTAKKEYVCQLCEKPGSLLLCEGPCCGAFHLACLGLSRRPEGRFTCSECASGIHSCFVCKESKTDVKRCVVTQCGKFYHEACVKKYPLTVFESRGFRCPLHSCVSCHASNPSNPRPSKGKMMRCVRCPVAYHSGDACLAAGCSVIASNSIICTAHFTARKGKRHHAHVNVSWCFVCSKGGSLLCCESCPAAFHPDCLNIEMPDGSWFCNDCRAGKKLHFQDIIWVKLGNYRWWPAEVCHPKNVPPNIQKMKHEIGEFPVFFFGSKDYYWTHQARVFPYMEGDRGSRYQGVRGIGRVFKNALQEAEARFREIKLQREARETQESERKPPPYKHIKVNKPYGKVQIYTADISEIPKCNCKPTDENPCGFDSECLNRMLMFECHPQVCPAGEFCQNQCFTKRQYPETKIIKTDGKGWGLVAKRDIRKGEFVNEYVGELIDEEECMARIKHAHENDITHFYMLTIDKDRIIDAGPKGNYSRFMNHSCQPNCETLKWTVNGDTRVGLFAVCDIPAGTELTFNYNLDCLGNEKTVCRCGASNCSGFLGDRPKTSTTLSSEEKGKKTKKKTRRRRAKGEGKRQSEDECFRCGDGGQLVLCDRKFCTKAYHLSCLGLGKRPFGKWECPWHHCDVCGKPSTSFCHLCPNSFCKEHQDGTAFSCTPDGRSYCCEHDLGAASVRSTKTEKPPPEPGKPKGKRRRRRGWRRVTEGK
Chain of Histone-lysine N-methyltransferase PRDM9 (Homo sapiens) (Q9NQV7 whole entry): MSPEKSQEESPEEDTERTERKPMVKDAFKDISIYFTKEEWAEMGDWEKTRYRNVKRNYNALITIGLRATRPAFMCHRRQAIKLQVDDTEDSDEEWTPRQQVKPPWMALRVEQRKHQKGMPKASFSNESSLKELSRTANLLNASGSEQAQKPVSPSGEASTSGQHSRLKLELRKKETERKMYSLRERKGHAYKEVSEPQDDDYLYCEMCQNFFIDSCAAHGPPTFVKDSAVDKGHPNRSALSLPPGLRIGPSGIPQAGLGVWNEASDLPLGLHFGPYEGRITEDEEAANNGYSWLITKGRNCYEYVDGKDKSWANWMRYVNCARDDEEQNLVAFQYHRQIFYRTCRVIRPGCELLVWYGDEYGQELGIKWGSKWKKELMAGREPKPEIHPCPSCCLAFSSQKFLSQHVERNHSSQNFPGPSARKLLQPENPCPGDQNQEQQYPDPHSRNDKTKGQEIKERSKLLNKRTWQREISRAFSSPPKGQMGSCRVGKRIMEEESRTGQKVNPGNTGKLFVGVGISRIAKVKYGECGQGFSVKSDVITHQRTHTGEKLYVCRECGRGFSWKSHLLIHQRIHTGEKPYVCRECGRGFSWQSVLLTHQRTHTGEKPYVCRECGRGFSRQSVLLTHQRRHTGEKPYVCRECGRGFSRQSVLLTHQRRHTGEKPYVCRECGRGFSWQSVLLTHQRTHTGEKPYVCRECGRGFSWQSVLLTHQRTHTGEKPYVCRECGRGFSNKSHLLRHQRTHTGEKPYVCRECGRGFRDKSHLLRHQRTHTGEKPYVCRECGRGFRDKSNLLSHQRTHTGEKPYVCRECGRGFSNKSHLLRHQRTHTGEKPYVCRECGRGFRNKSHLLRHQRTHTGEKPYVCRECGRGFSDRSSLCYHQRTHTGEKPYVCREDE
Chain of Histone-lysine N-methyltransferase SUV39H1 (Homo sapiens) (O43463 whole entry): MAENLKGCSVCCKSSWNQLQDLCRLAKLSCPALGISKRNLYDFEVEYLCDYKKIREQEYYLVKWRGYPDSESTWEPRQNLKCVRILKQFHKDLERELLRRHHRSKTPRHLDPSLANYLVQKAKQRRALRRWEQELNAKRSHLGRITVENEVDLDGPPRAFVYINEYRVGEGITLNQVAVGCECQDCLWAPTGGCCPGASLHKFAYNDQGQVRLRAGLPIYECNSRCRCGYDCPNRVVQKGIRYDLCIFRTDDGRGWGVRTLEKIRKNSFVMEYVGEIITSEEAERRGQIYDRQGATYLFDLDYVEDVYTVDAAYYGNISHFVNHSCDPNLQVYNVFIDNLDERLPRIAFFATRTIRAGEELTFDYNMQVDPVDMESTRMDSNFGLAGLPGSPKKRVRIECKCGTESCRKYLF

inhibition [1]: inactive
inhibition [2]: inactive
inhibition [4]: 3%
inhibition [5]: -7%
inhibition [6]: 10%
SMILES: O=C(c1nnc(NC2CCCC2)c2cc(Cl)c(Cl)cc12)N1CCC(O)CC1
Activity [3]: inactive

inhibition [7]: Active
inhibition [8]: inactive
inhibition [9]: inactive
inhibition [10]: inactive
inhibition [11]: inactive
inhibition [12]: inactive
inhibition [13]: inactive
inhibition [23]: 8%
inhibition [24]: 7%
inhibition [25]: 7%
inhibition [26]: 2%
inhibition [27]: 1%
inhibition [28]: -1%
inhibition [29]: -2%
inhibition [30]: -8%
inhibition [31]: 20%
inhibition [32]: 5%
inhibition [33]: -7%
inhibition [34]: -7%
SMILES: Clc1cc2c(NC3CCCC3)nnc(-c3ccncc3)c2cc1Cl
Activity [14]: Active
Activity [15]: Active
Activity [16]: Active
Activity [17]: Active
Activity [18]: Active
Activity [19]: Active
inhibition [20]: Active
Activity [21]: Active
Activity [22]: inactive
